# Tested on: ZIKV
# Assay: ZIKV inhibition in human neural progenitor cells (IFA, qRT-PCR)
# Type: cell-based, Zika virus
# Settings: HNPC
# Description: Viral Titer Reduction Assay. A viral titer reduction assay was used to determine the compounds' effect on DENV2 and ZIKV strains, as described previously. Li et al., “Existing Drugs as Broad-Spectrum and Potent Inhibitors for Zika Virus by Targeting NS2B-NS3 Interaction,” Cell Res. 27:1046-1064 (2017) and Li et al., “Erythrosin B is a Potent and Broad-Spectrum Orthosteric Inhibitor of the Flavivirus NS2B-NS3 Protease,” Antiviral Res. 150:217-225 (2018), which are hereby incorporated by reference in their entirety. Human A549 lung carcinoma cells and human primary neural progenitor cells were used, as described previously. Li et al., “Erythrosin B is a Potent and Broad-Spectrum Orthosteric Inhibitor of the Flavivirus NS2B-NS3 Protease,” Antiviral Res. 150:217-225 (2018); Brecher et al., “A Conformational Switch High-Throughput Screening Assay and Allosteric Inhibition of the Flavivirus NS2B-NS3 Protease,” PLoS Pathog. 13:e1006411 (2017), which are hereby incorporated by reference in their entirety. All experiments were performed in triplicates.
# Immunofluorescence Assay. The immunofluorescence assay was performed using ZIKV-infected cells treated with DMSO or JMX0207, as described previously. […]
# Quantitative qRT-PCR. Quantitative qRT-PCR was performed as described previously. […] The 2-ΔΔCT (“delta-delta Ct”) method was used to quantify samples. […]
structure (smiles),measurement,value
"O=C(Nc1ccc([N+](=O)[O-])cc1Cl)c1cccc([N+](=O)[O-])c1O [JMX0207, N-(2-Chloro-4-nitrophenyl)-2-hydroxy-3-nitrobenzamide]",ZIKV protein expression and RNA synthesis,effectively inhibited ZIKV protein expression and RNA synthesis in HNPC in dose-dependent manner
